Measurements taken from ChEMBL document CHEMBL1201862, “PubChem BioAssay data set” (2004).
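Tested at 5 concentrations; 48 h exposure; 96-well plates; endpoints linearly interpolated, else capped at highest concentration. GI50 is the concentration that inhibits growth by half.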 Calls of active or inactive are those of the source. Cut-off read from the data, not from the text of the source: active = GI50 up to about 1.1 µM and inactive = higher.

Columns and labels:
Assay in all cases: NCI-60 cell line screen, 48 h
U-251 = system: U-251
HT-29 = system: HT-29
A498 = system: A498
MOLT-4 = system: MOLT-4
HL-60 = system: HL-60
NCI-H460 = system: NCI-H460
SF-539 = system: SF-539
SNB-19 = system: SNB-19
RXF 393 = system: RXF 393
NCI-H226 = system: NCI-H226
HCC 2998 = system: HCC 2998
SK-MEL-2 = system: SK-MEL-2
UO-31 = system: UO-31
EKVX = system: EKVX
TK-10 = system: TK-10
SF-268 = system: SF-268
K562 = system: K562
RPMI-8226 = system: RPMI-8226
LOX IMVI = system: LOX IMVI
CCRF-CEM = system: CCRF-CEM

Measured: GI50

C/C=C/C(C#N)O[Si](C)(C)C (stereo unspecified)
inactive: U-251 > 100 µM | HT-29 > 100 µM | A498 > 100 µM | MOLT-4 > 100 µM | HL-60 > 100 µM | NCI-H460 > 100 µM | SF-539 > 100 µM | SNB-19 > 100 µM | RXF 393 > 100 µM | NCI-H226 > 100 µM | HCC 2998 > 100 µM | SK-MEL-2 > 100 µM | UO-31 > 100 µM | EKVX > 100 µM | TK-10 > 100 µM | SF-268 > 100 µM

CCOC(=O)c1ccc(C(=O)C(C(C)=O)C(=O)OC(C)(C)C)[nH]1 (stereo unspecified)
inactive: U-251 > 100 µM | HT-29 > 100 µM | A498 > 100 µM | MOLT-4 > 100 µM | HL-60 > 100 µM | NCI-H460 > 100 µM | K562 > 100 µM | SNB-19 > 100 µM | RXF 393 > 100 µM | RPMI-8226 > 100 µM | NCI-H226 > 100 µM | HCC 2998 > 100 µM | SK-MEL-2 > 100 µM | UO-31 > 100 µM | EKVX > 100 µM | SF-268 > 100 µM | LOX IMVI > 100 µM

O=C1c2sc(-c3ccc(F)cc3)cc2-n2cccc21
inactive: U-251 16.4 µM | HT-29 25.2 µM | A498 23.3 µM | MOLT-4 21.4 µM | NCI-H460 24.9 µM | K562 10.2 µM | SNB-19 16.7 µM | RXF 393 23.5 µM | RPMI-8226 23.3 µM | CCRF-CEM 28.5 µM | NCI-H226 24.4 µM | HCC 2998 29.2 µM | SK-MEL-2 > 100 µM | UO-31 22.5 µM | EKVX 1.89 µM | TK-10 21.9 µM | SF-268 19.9 µM | LOX IMVI 32.1 µM

CN(COC(=O)C(C)(C)C)c1nc(N(C)COC(=O)C(C)(C)C)nc(N(C)COC(=O)C(C)(C)C)n1
inactive: HT-29 34 µM | A498 > 100 µM | MOLT-4 24.8 µM | HL-60 29.2 µM | NCI-H460 60 µM | SF-539 > 100 µM | K562 24 µM | SNB-19 > 100 µM | RXF 393 21 µM | CCRF-CEM 16.7 µM | NCI-H226 > 100 µM | HCC 2998 34.3 µM | SK-MEL-2 61.1 µM | UO-31 > 100 µM | EKVX > 100 µM | TK-10 > 100 µM | SF-268 34.8 µM

CC(C)(C)c1ccc(-n2c3nc(=O)n(-c4ccccc4CO)c(=O)c-3cc3ccccc32)cc1
inactive: U-251 55.6 µM | HT-29 26.6 µM | A498 > 100 µM | MOLT-4 16.1 µM | HL-60 23.8 µM | NCI-H460 38.9 µM | SF-539 30.5 µM | K562 45.7 µM | SNB-19 74.8 µM | RXF 393 22.8 µM | CCRF-CEM 38.1 µM | NCI-H226 28 µM | HCC 2998 38 µM | SK-MEL-2 > 10 µM | UO-31 42.1 µM | EKVX 48.9 µM | TK-10 61.5 µM | SF-268 40.6 µM | LOX IMVI 20.5 µM

CC1=Nc2ccccc2C12C(c1ccccc1)C(c1ccccc1)C(=O)N1c3ccccc3CC12 (stereo unspecified)
inactive: U-251 > 100 µM | HT-29 > 100 µM | A498 > 100 µM | MOLT-4 > 100 µM | HL-60 > 100 µM | NCI-H460 > 100 µM | SF-539 > 100 µM | K562 > 100 µM | SNB-19 > 100 µM | RXF 393 > 100 µM | RPMI-8226 > 100 µM | NCI-H226 > 100 µM | HCC 2998 > 100 µM | SK-MEL-2 > 100 µM | UO-31 > 100 µM | EKVX > 100 µM | TK-10 > 100 µM | LOX IMVI > 100 µM

O=c1[nH]c2cc(C(F)(F)F)ccc2nc1C(F)(F)F
inactive: U-251 42 µM | HT-29 36.4 µM | A498 41.3 µM | MOLT-4 38.4 µM | NCI-H460 > 100 µM | SF-539 25.2 µM | K562 50.2 µM | SNB-19 35.6 µM | RXF 393 20.3 µM | RPMI-8226 31.5 µM | CCRF-CEM 30.8 µM | NCI-H226 28.6 µM | HCC 2998 49.7 µM | SK-MEL-2 33.7 µM | UO-31 30.4 µM | EKVX 32.3 µM | TK-10 49.7 µM | SF-268 40.4 µM | LOX IMVI 30.8 µM

C/C(=C/c1c(C)[nH]c(=O)[nH]c1=O)C(=O)O
inactive: U-251 > 1370 µM | HT-29 > 1370 µM | A498 > 1370 µM | MOLT-4 > 1370 µM | HL-60 > 1370 µM | NCI-H460 > 1370 µM | SF-539 > 1370 µM | K562 > 1370 µM | SNB-19 > 1370 µM | RXF 393 > 1370 µM | RPMI-8226 > 1370 µM | CCRF-CEM > 1370 µM | NCI-H226 > 1370 µM | HCC 2998 > 1370 µM | UO-31 > 1370 µM | EKVX 1290 µM | SF-268 > 1370 µM | LOX IMVI > 1370 µM

COc1cccc(-c2[nH]c3cc4c(cc3c(=O)c2C(=O)O)OCO4)c1
inactive: U-251 37.2 µM | HT-29 34.2 µM | A498 34.4 µM | MOLT-4 24.2 µM | NCI-H460 43.7 µM | SF-539 28.8 µM | K562 34.5 µM | SNB-19 43.4 µM | RXF 393 39.2 µM | RPMI-8226 41.2 µM | CCRF-CEM 27.4 µM | NCI-H226 43.5 µM | HCC 2998 32.8 µM | SK-MEL-2 78.7 µM | UO-31 49.2 µM | EKVX 79.1 µM | LOX IMVI 42.3 µM

C[C@@H]1O[C@]2(O)[C@@H]3CCCN3S(=O)(=O)CCN2C1=O
inactive: U-251 > 100 µM | HT-29 > 100 µM | A498 > 100 µM | MOLT-4 > 100 µM | HL-60 > 100 µM | NCI-H460 > 100 µM | SF-539 > 100 µM | K562 > 100 µM | SNB-19 > 100 µM | RXF 393 > 100 µM | RPMI-8226 > 100 µM | CCRF-CEM > 100 µM | NCI-H226 > 100 µM | HCC 2998 > 100 µM | UO-31 > 100 µM | EKVX > 100 µM | TK-10 > 100 µM | SF-268 > 100 µM | LOX IMVI > 100 µM

CN=S(=O)(C[C@]1(O)CC2OC1C1OC(C)(C)OC21)c1ccccc1 (stereo partly specified)
inactive: U-251 > 100 µM | HT-29 > 100 µM | A498 > 100 µM | MOLT-4 > 100 µM | HL-60 > 100 µM | NCI-H460 > 100 µM | SF-539 > 100 µM | K562 > 100 µM | SNB-19 > 100 µM | RXF 393 > 100 µM | RPMI-8226 > 100 µM | CCRF-CEM > 100 µM | NCI-H226 > 100 µM | HCC 2998 > 100 µM | SK-MEL-2 > 100 µM | EKVX > 100 µM | TK-10 > 100 µM | SF-268 > 100 µM
